Test results: article PMC4074120, “Discovery of Novel GPVI Receptor Antagonists by Structure-Based Repurposing” (PLoS ONE, 2014)

Target: T1, GPVI (platelet glycoprotein VI) (Homo sapiens, UniProt Q9HCN6)
T1 construct: gene GP6; native receptor on washed human platelets
T1 sequence (Q9HCN6 21-339): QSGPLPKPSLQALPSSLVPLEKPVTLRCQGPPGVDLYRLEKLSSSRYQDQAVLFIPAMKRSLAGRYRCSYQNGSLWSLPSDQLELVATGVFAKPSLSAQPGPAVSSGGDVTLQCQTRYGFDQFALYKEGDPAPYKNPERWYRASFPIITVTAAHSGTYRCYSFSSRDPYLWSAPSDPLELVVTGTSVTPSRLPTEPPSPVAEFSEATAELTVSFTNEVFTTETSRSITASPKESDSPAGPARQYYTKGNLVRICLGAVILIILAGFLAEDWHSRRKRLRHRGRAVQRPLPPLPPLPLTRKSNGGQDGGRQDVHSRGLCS
Assay: Inhibition of CRP-XL/collagen-induced Ca2+ release and aggregation in washed human platelets; rightward shift of CRP-XL curve
Assay type: cell-based
Settings: read-out: Ca^2+ RELEASE / CRP

- IC50: 40 µM
Structure (SMILES): CN(C)CCCSc1ccccc1NC(=O)/C=C/c1ccccc1 [cinanserin]
